The text below walks through data of the RepoRT retention time repository.

Structures are written as SMILES.

The nature of the data set: Thermo Scientific Acclaim RSLC 120 C18, 100 × 2.1 mm, 2.2 µm, 30 °C, 0.2 to 0.48 mL/min, estimated dead time 1.1 min; A: 90% water + 10% methanol + 5 mM ammonium acetate; B: methanol + 5 mM ammonium acetate; gradient (min/%B) 0.1/1 3/39 14/99.9 16/99.9. The following applies: stereoisomer not certain.

Take `COCCCOc1cc(CC(CC(N)C(O)CC(C(=O)NCC(C)(C)C(N)=O)C(C)C)C(C)C)ccc1OC` (centres undefined): the LC retention time is 10.9 min.

For `O=C(O)c1cc(-c2ccccc2)nc2ccccc12`, the LC retention time was 5.89 min.

In the case of `COc1ccc2cc(C(C)C(=O)O)ccc2c1` (centres undefined), the LC retention time was 6.74 min.

For the compound `O=[N+]([O-])c1ccc(O)c([N+](=O)[O-])c1`, the LC retention time was 4.5 min.

With `NCC(O)c1ccc(O)cc1` (centres undefined), the LC retention time was 1.96 min.

For the compound `CC1=C(C(=O)Nc2ccccc2)S(=O)(=O)CCO1`, the LC retention time was 5.57 min.

For the compound `CC(=O)Nc1cc(S(=O)(=O)O)cc2cc(S(=O)(=O)O)c(N=Nc3ccccc3)c(O)c12`, the LC retention time was 4.56 min.

On to `CCOC(=O)NCCOc1ccc(Oc2ccccc2)cc1`, for which the LC retention time is 10.6 min.

As for `CN(C)C(=O)Nc1ccccc1`, the LC retention time was 5.11 min.

With `CC1C=CC=CCCC=CC=CC=CC=CC(OC2OC(C)C(O)C(N)C2O)CC2OC(O)(CC(O)C(O)CCC(O)CC(O)CC(O)CC(=O)OC(C)C(C)C1O)CC(O)C2C(=O)O` (centres undefined), the LC retention time is 11.8 min.

For the compound `CCc1cccc(C)c1N(C(=O)CS(=O)(=O)O)C(C)COC` (centres undefined), the LC retention time is 8.19 min.

Turning to `CNC(=N[N+](=O)[O-])NCC1CCOC1` (centres undefined), the LC retention time is 3.59 min.

As for `CCN1CCCC1CNC(=O)c1cc(S(N)(=O)=O)ccc1OC` (centres undefined), the LC retention time is 4.42 min.

`Cc1ccccc1C(=O)Nc1cccc(OC(C)C)c1`: the LC retention time was 9.58 min.

Consider `CS(=O)(=O)Nc1ccc([N+](=O)[O-])cc1Oc1ccccc1`, for which the LC retention time is 8.24 min.

In the case of `CC(C(=O)O)c1ccc(N2Cc3ccccc3C2=O)cc1` (centres undefined), the LC retention time was 6.23 min.

Take `CCC1(O)CCC2C3CCC4=CC(=O)CCC4C3CCC21C` (centres undefined): the LC retention time is 14 min.

As to `O=S(=O)(O)c1ccc2ccccc2c1`, the LC retention time was 5.42 min.

With `CCOP(=S)(NC(C)C)Oc1ccccc1C(=O)OC(C)C` (centres undefined), the LC retention time is 11.2 min.

Take `CCC(=O)OC(OP(=O)(CCCCc1ccccc1)CC(=O)N1CC(C2CCCCC2)CC1C(=O)O)C(C)C` (centres undefined): the LC retention time is 13.3 min.

With `CNC(=O)Nc1nc2ccccc2s1`, the LC retention time was 7.1 min.

For the compound `CCCCc1c(C)nc(NCC)nc1OS(=O)(=O)N(C)C`, the LC retention time is 10.5 min.

With `CC12CCC3C(CC(O)C4=CC(=O)CCC43C)C1CCC2=O` (centres undefined), the LC retention time was 6.99 min.

On to `COc1cccc(C(=O)NN(C(=O)c2cc(C)cc(C)c2)C(C)(C)C)c1C`, for which the LC retention time is 9.55 min.

In the case of `CCc1cccc(CC)c1N(COC)C(=O)CS(=O)(=O)O`, the LC retention time is 8.02 min.

Consider `CC12C=CC(=O)C=C1CCC1C2C(=O)CC2(C)C1CCC2(O)C(=O)CO` (centres undefined), for which the LC retention time is 8.31 min.

As to `CCNC(=O)C(C)OC(=O)Nc1ccccc1` (centres undefined), the LC retention time is 6.54 min.

As for `COC(=O)Nc1nc2ccccc2[nH]1`, the LC retention time is 5.8 min.

For the compound `O=C1NC(=O)C(c2ccccc2)(c2ccccc2)N1`, the LC retention time is 8.26 min.
